Test results published in patent US20180147256A1, “MEANS AND METHODS FOR TREATING FACIOSCAPULOHUMERAL MUSCULAR DYSTROPHY (FSHD)” (ACADEMISCH ZIEKENHUIS LEIDEN H.O.D.N. LUMC, priority 2015, published 2018).

System: DUX4
Test: DUX4 transcript levels in FSHD primary muscle cell cultures treated with PR-619
Type: cell-based
Details: DUX4 expressing human primary FSHD myoblasts; 5 μM, 10 μM and 20 μM
Description: To further confirm the hypothesis that sumoylation is relevant for repression of DUX4, PR619 was used as inhibitor for the removal of SUMO substrates from their proteins. PR619 is a non-selective inhibitor of deubiquitinases and ubiquitin-like isopeptidases (like the family of SENP isopeptidases). […] DUX4 expressing human primary FSHD myoblasts were treated with 3 different concentrations of PR619 (5 μM, 10 μM and 20 μM) and cells were harvested for RNA isolation. […] Thus PR619 treatment of DUX4 expressing primary FSHD myotubes leads to DUX4 downregulation.
Human primary myoblast cell lines were originating from the University of Rochester bio repository (http://www.urmc.rochester.edu/fields-center/). Muscle samples were obtained after subjects were consented under a protocol approved by the institutional review board at the University of Rochester. […]
Myoblast and myotube samples were harvested for RNA isolation by adding QIAzol lysis reagent (#79306 Qiagen N.V., Venlo, The Netherlands). […] Gene specific cDNA products were quantified by qPCR in duplicate using SYBR green master mix supplemented with gene specific primers (table S2) using the CFX96 system (Bio-Rad, Veenendaal, The Netherlands). Data were analyzed by Bio-Rad CFX manager version 3.0 (Bio-Rad) using GAPDH and GUSB as reference genes.

Q: For N#CSc1cc(SC#N)c(N)nc1N [PR-619, 2,6-Diamino-3,5-dithiocyanopyridine], which DUX4 transcript levels is on record?
A: Its DUX4 transcript levels is “decreased in cells treated with PR-619 in a dose dependent manner”.
